Measured values as given in patent US12611443B2, “Methods and compositions related to therapeutic peptides for cancer therapy” (THE UNIVERSITY OF CHICAGO, priority 2018, dated 2026).

How the values were obtained:
[1] = tested on: tumors (MDA-MB-231, A549, MEL888, M1, 4195, E0771, LLC1, B16F10); test: Intra-tumoral treatment of tumor models (xenograft, PDX, syngeneic); format: in vivo, mice
Description: Tumor inoculation and treatment. MDA-MB-231 cells (2×10^6), A549 cells (2×10^6) with Matrix Type 3), or MEL888 cells (2×10^6 with Matrix Type 3) were injected into athymic nude mice (Charles River); M1 or 4195 cells (50,000) were injected into NOD.SCID mice (JAX); and E0771 cells (0.5×10^6), LLC1 cells (0.5×10^6), or B16F10 cells (1×10^6), were injected into C57BL/6 mice (JAX). For TNBC models (MDA-MB-231, E0771, M1, 4195), cells were injected into the 4th mammary fat pad of the right ventral side. For all other models (A549, LLC1, MEL888, B16F10), cells were injected into the flank. Once tumors reached ˜100 mm^3, ELANE or PMSF-ELANE (11.6 μg/100 μL), or neutrophil medias or HSA (50 μg/100 μL) were delivered IT once/day for 5 days. Tumor volume was assessed by calipers, and experiments were terminated when tumor volume in control mice reached >1000 mm^3.
Tumor immunohistochemistry. Tumors were fixed in 4% paraformaldehyde in PBS for 24 h, embedded in paraffin blocks, and sectioned (5 μm). Slides were stained with cCASP3 (9661) and cPARP (9625) antibodies from Cell Signaling Technology. Signals were developed using the VECTASTAIN ABC kit (Vector Laboratories) or fluorescently-labeled secondary antibodies (melanoma models). For the TUNEL assay, staining was performed with the DeadEnd™ colorimetric or fluorometric TUNEL systems (Promega). Cell nuclei were labeled with haematoxylin or Hoechst 33342 (ThermoFisher Scientific). Images were obtained with a Nikon Eclipse Ti2 microscope and analyzed using NIS-Elements software.

[2] = tested on: survival, stress, and apoptosis pathways in cancer cells; test: Killing program in cancer cells (western blot, mitochondrial ROS); format: cell-based; details: all 6 cancer cell lines tested
Description: Western Blot Analysis. Cells were lysed with 1% SDS containing protease and phosphatase inhibitors (Sigma), and protein was quantified with the BCA Protein Assay Kit (Pierce). Proteins (10-20 μg) were resolved on 10%, 12.5%, 15%, or 20% SDS-PAGE gels depending on the target protein, transferred to PVDF membranes (Millipore), blocked with 5% BSA (Sigma) in 0.1% TBS/Tween-20 at RT for 2 hrs, stained with primary and secondary antibodies, and visualized using the ECL detection kit (Biorad) and a LI-COR imager. Antibodies—Antibodies against pERK (4370), ERK (4695), pNFκB (3033), NFκB (8242), pJNK (4668), JNK (9252), CASP3 (9662), PARP (9542), H2AX (2595), TUBB (2125) were from Cell Signaling Technology. Antibodies against γH2AX (05-636-I, Millipore), ELANE (68672, Abcam), N-terminal CD95 (3070R, BioVision), and C-terminal CD95 (60196, Proteintech).
Mitochondrial ROS measurements. Cells were treated with various doses of ELANE for 30 min, washed, labeled with the CM-H2DCFDA dye (ThermoFisher Scientific, 10 μM) for 30 min at 37° C., and fluorescence was quantified by flow cytometry.

[3] = tested on: E0771 and B16F10 1° and 2° tumors; test: Abscopal effect studies; format: in vivo, C57BL/6 mice
Description: Abscopal effect studies. For the E0771 model, 0.5×10^6 cells were injected into the 4th mammary fat pad of the right ventral side (1° tumor) and 0.4×10^6 cells were injected into the 4th mammary fat pad of the left ventral side (2° tumor) of C57BL/6 mice. Once the 1° tumor reached ˜100 mm^3, ELANE or PMSF-ELANE (11.6 μg/100 μL) were injected IT into the 1° tumor once/day for 5 days, and 1° and 2° tumor volumes were measured by calipers. For the B16F10 model, 0.5×10^6 cells were injected into the flank (1° tumor). 7 days later, 0.2×10^6 cells were injected into the lateral tail vein to create 2° lung metastases. Once the 1° tumor reached ˜100 mm^3, ELANE or PMSF-ELANE (11.6 μg/100 μL) were injected IT into the 1° tumor once/day for 5 days, and the 1° tumor volume was measured by calipers. Lungs were excised 10 days after the final ELANE treatment, and 2° lung metastases were counted. For CD8^+ T cell depletion, anti-mouse CD8α (clone 2.43, Bio X Cells) or rat IgG2b (isotype control, Bio X Cells) were injected IV (200 μg/injection) 3 days before the first ELANE treatment, and once/week after the last ELANE treatment. CD8^+ T cell depletion was confirmed by flow cytometry.
For the ‘spillover control’, 0.5×10^6 E0771 cells were injected into the 4th mammary fat pad of the left ventral side (2° tumor). ELANE or PMSF-ELANE (11.6 μg/100 μL) were injected into the tumor-free 4th mammary fat pad of the right ventral side pad once/day for 5 days, and 2° tumor volume was measured by calipers.
For the ‘specificity control’, 0.5×10^6 E0771 cells were injected into the into the 4th mammary fat pad of the right ventral side (1° tumor) and 7 days later, 1×10^6B16F10 cells were injected into the flank (2° tumor). Once the 1° tumor reached ˜100 mm^3, ELANE or PMSF-ELANE (11.6 μg/100 μL) were injected IT into the 1° tumor once/day for 5 days, and 1° and 2° tumor volumes were measured by calipers.

[4] = Assessment of potential side-effects in tumor-free C57BL/6 mice; format: in vivo
Description: Assessment of potential side-effects. ELANE or PMSF-ELANE (11.6 μg/100 μL) were injected into the 4th mammary fat pad of the right ventral side pad of tumor-free C57BL/6 mice once/day for 5 days. One day after the last injection, mice were studied for potential side-effects. Body weight and spleen weight were measured. Apoptosis at the injection site was studied by isolating, fixing, and staining mammary adipose tissue for TUNEL, cCASP3, and cPARP using identical methods described for tumors above. Mammary adipose tissue immune cell populations at the injection site were determined by flow cytometry using identical methods described for tumors above. Liver function was assessed by measuring plasma ALT activity with the Alanine Transaminase Colorimetric Activity Assays Kit (Cayman Chemical).

## ELANE: neutrophil elastase, a serine protease released by human PMNs
[1]; E0771 TNBC model, IT, 12 μg/day
  therapeutic benefit, dose finding: good therapeutic benefit that was reproducible
[1]; ELANE 12 μg/day IT, TNBC, lung cancer, melanoma models
  tumor growth: attenuated tumor growth in all models tested
[1]; ELANE IT
  staining for TUNEL, cPARP, and cCASP3 in tumors: increase in staining for TUNEL, cPARP, and cCASP3 in all ELANE-treated tumors
[1]; all immunocompetent models tested
  tumors with a crater: ~40%
[1]; mouse, in vivo
  craters in tumor-free mice and immunocompromised cancer models: Craters were not observed
[2]
  DNA damage (γH2AX): induced DNA damage
  mitochondrial ROS (MT ROS): increased MT ROS
  pro-apoptotic pathways (cCASP3 and cPARP): activated pro-apoptotic pathways
  survival pathways (phosphorylation of ERK, NFκB, or JNK): suppressed at least one survival pathway
[3]; 1° B16F10 tumor treated, 12 μg/day for 5 days
  number of 2° lung metastases: lowered the number of lung metastases
[3]; 1° E0771 tumor treated
  tumorigenesis in 2° B16F10 tumor (specificity control): did not impact tumorigenesis in a 2° B16F10 tumor
[3]; 1° tumor treated, 12 μg/day for 5 days
  tumorigenesis at 1° and 2° E0771 tumors: attenuated tumorigenesis at both sites
[3]; both models
  abscopal effect after depleting CD8+ T cells: attenuated ELANE's abscopal effect in both models
[3]; opposite the tumor, tumor-bearing mice
  tumorigenesis after injection into contralateral site: failed to attenuate tumorigenesis
[4]; ELANE 12 μg/day into mammary fat pads
  side effects: did not produce evident side effects
[4]; ELANE injected into tumor-free C57BL/6 mice
  apoptosis at injection site: no evidence of apoptosis was found
